Laboratory results taken from ChEMBL document CHEMBL1201862, “PubChem BioAssay data set” (2004).
The source made the active and inactive calls.

Key:
[1] = target: T1, Polyadenylate-binding protein 1 (Homo sapiens, UniProt P11940); experiment: MLLE binding blockers, Cy5 peptide tracer – biochemical, fluorescence polarization, Cy5-PAM2 peptide, secondary, miRNA deadenylation inhibitor project, dose response (AID 602260); format: functional; details: read-out: IC50_Mean
[2] = target: T1, Polyadenylate-binding protein 1; experiment: MLLE domain peptide-binding blockers, IC50 – biochemical, fluorescence polarization, FITC-PAM2 peptide, dose response (AID 602259); format: functional; details: read-out: IC50_Mean
[3] = target: Induced myeloid leukemia cell differentiation protein Mcl-1 (Homo sapiens, UniProt Q07820); format: functional
Sequence of Induced myeloid leukemia cell differentiation protein Mcl-1 (Q07820 whole entry): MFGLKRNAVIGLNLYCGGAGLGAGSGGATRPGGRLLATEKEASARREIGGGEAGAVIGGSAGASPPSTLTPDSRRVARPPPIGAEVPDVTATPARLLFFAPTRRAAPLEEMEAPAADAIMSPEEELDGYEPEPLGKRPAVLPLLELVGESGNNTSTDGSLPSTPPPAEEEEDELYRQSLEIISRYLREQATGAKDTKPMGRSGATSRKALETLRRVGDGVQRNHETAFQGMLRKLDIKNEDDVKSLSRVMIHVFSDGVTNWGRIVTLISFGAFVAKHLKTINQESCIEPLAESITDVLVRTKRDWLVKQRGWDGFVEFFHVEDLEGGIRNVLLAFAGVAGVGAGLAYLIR

[4] = target: T2, Calpain-2 catalytic subunit (Sus scrofa, UniProt P43367); experiment: m-calpain protease blockers, concentration series – biochemical, fluorogenic peptide substrate, dose response (AID 1420); format: functional
T2 sequence (P43367 whole entry): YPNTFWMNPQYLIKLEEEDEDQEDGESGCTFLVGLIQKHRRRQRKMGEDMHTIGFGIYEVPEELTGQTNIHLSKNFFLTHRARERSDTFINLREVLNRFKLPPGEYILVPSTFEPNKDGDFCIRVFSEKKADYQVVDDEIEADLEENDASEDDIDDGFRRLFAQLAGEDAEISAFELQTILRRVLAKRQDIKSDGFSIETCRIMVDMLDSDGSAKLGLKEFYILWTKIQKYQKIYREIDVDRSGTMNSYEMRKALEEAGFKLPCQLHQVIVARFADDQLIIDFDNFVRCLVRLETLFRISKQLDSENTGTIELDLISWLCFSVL

P388 = experiment: cells; format: functional; details: Mus musculus
SN12K1 = experiment: cells; format: functional; details: Homo sapiens
P388/ADR = experiment: cells; format: functional; details: Mus musculus
[5] = target: T3, Carboxy-terminal domain RNA polymerase II polypeptide A small phosphatase 1 (Homo sapiens, UniProt Q9GZU7); experiment: CTDSP1 inhibitors, concentration-response, biochemical, absorbance readout, ultra-high-throughput screen actives (AID 540297); format: functional
T3 sequence (Q9GZU7 whole entry): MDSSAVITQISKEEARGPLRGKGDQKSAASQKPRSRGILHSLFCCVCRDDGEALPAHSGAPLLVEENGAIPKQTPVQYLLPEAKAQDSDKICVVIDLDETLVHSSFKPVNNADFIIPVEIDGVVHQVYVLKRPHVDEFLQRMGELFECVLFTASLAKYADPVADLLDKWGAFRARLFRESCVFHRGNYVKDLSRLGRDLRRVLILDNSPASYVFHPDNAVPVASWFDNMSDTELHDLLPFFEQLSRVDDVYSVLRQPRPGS

[6] = microbe, parasite or virus in culture; format: functional; details: Mycobacterium tuberculosis
[7] = viability of uninfected HEp-2 cells – cell-based, HTS, cytotoxicity control for RSV inhibitor project, dose response (AID 2410); format: functional; details: human respiratory syncytial virus
[8] = target: T4, Rac GTPase-activating protein 1 (Homo sapiens, UniProt Q9H0H5); experiment: blockers of MgcRacGAP-driven Rac1 GTP hydrolysis – biochemical, ADP Hunter fluorescence, primary and confirmatory, confirmation (AID 624330); format: functional
T4 sequence (Q9H0H5 whole entry): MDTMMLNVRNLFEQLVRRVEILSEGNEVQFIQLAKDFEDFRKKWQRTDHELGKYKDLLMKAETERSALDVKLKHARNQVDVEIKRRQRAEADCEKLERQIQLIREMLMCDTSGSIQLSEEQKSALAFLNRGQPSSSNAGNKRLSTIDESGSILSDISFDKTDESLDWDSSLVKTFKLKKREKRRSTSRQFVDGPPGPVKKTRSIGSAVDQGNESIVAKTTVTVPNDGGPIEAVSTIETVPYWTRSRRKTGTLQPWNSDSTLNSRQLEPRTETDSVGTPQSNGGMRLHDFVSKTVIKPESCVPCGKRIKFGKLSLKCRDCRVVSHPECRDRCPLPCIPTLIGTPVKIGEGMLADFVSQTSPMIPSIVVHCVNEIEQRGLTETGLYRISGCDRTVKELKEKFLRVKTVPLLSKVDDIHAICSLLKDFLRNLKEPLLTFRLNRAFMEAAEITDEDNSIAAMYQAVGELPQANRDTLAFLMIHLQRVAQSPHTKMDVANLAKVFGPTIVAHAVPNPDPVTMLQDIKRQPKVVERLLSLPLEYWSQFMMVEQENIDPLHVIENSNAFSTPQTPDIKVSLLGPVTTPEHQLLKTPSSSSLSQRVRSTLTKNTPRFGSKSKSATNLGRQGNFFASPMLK

Cytochrome P450 3A4 = Cytochrome P450 3A4 (Homo sapiens, UniProt P08684);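 note: CYP3A4 tested as one member of a cytochrome P450 panel screen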
Sequence of Cytochrome P450 3A4 (P08684 whole entry): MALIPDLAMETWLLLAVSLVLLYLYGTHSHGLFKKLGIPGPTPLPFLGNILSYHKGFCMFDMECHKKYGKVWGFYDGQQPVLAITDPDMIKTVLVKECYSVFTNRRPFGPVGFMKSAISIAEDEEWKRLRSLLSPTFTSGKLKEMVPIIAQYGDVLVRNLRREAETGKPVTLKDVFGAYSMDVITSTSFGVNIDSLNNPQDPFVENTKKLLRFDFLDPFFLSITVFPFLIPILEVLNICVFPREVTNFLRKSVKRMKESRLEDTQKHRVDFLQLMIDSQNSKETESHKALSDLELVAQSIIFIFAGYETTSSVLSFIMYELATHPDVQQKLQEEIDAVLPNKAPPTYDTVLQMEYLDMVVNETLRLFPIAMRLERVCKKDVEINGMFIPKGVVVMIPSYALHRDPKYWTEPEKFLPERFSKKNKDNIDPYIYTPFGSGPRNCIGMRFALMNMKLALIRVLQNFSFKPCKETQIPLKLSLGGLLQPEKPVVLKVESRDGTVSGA

Cytochrome P450 1A2 = target: T5, Cytochrome P450 1A2 (Homo sapiens, UniProt P05177);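 note: PubChem cytochrome P450 panel assay, CYP1A2 panel member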
T5 sequence (P05177 whole entry): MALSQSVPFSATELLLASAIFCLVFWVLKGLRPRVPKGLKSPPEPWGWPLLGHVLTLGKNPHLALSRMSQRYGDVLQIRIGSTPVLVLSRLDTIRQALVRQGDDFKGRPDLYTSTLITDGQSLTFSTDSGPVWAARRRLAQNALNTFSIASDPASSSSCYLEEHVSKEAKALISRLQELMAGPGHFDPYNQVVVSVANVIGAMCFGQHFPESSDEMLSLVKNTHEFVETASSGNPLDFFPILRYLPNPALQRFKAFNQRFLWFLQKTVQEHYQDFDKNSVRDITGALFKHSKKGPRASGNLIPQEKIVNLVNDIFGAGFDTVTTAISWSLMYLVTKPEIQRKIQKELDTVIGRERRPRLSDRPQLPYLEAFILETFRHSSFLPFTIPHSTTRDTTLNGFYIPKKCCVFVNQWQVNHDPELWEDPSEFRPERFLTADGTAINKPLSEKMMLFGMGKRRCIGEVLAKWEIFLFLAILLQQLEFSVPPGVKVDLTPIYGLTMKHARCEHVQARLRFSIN

[9] = viability of HCT116 lacking mutant beta-catenin – cell-based, human colon tumor, dose response (AID 1045); format: functional;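 note: HCT116 colon tumor cells with beta catenin knocked out; cells exposed to compound for 60 hours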
[10] = viability of PTEN-deleted HCT116 cells – cell-based, HCT116 PTEN knockout, dose response (AID 1047); format: functional;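 note: HCT116 colon tumor cells with PTEN knocked out; cells exposed to compound for 60 hours before readout; potency for loss of cell viability measured by luminescence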
[11] = target: T6, High affinity choline transporter 1 (Homo sapiens, UniProt Q9GZV3); experiment: human choline transporter blockers, potency – cell-based, 5-point CRC, membrane potential dye, dose response (AID 504840); format: functional
T6 sequence (Q9GZV3 whole entry): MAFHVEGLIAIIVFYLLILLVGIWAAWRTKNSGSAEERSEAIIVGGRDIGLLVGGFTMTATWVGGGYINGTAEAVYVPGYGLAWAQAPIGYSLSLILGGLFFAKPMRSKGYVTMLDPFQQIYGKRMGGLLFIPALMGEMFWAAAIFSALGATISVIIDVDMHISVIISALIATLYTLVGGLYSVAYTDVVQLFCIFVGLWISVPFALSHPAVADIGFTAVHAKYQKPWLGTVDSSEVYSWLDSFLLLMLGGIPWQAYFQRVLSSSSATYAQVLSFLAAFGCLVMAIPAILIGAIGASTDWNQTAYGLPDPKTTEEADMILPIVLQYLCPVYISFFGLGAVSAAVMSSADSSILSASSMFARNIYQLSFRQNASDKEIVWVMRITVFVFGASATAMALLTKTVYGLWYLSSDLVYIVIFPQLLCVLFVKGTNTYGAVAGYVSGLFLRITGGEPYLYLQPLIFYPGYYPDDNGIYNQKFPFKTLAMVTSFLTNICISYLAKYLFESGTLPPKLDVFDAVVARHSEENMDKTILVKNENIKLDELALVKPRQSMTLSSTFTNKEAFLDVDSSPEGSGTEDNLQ

INS1 = experiment: INS-1E survival protection against cytokine death – cell-based, luminescence, retest, dose response (AID 449756); format: functional; details: Rattus norvegicus;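 note: cell death triggered by IL-1 beta plus TNF-alpha plus IFN-gamma mixture; protective hits raise ATP signal compared with cytokine alone wells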
[12] = non-specific 3'UTR reporter inhibition in Clone20-Shn3RL – cell-based, Renilla luciferase, cherry-picked, counter-screen for Shn3 inhibitor project, dose response (AID 624133); format: functional
[13] = reduction of Shn3 3'UTR-driven luciferase in osteoblasts – cell-based, Clone20 osteoblasts, firefly luciferase, cherry-picked, dose response (AID 624132); format: functional;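 note: firefly luciferase luminescence from reporter carrying the Shn3 3'UTR in osteoblasts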
[14] = loss of viability in HepG2 cells – cell-based, CellTiter-Glo, cherry-picked, cytotoxicity control for Shn3 inhibitor project, dose response (AID 624134); format: functional

T1 sequence (P11940 whole entry, the tested form may be a part): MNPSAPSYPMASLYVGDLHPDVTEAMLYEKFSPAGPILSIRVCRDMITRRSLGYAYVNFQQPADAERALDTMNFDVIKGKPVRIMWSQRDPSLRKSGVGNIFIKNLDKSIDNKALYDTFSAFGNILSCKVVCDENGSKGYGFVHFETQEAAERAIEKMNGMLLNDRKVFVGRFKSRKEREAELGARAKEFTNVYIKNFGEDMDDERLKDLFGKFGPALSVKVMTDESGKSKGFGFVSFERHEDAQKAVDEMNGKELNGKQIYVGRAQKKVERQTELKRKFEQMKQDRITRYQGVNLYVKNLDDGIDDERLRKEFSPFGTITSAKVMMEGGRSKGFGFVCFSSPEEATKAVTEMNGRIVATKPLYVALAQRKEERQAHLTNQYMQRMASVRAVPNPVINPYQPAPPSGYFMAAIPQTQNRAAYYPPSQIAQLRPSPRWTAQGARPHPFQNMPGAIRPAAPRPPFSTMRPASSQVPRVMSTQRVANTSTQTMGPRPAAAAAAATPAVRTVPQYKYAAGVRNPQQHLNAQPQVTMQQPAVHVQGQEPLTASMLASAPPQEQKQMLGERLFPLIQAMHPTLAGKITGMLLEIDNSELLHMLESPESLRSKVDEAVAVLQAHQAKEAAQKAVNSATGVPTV

CCCn1c(N)c(C(=S)NC(=O)C2CC2)c(=O)n(C)c1=O
IC50 [1]: > 66 µM (inactive) | IC50 [2]: > 66 µM (inactive)

CCN(CC)c1ccc(NC(=O)c2ccccc2OCC(=O)OC)cc1
IC50 [3]: 6.35 µM (not active)

CCCCc1ccc(NC(=O)C2CCCO2)cc1 (stereo not given)
IC50 [4]: 13.4 µM (not active)

CC12CCC3C(CCC4=CC(O)CCC43C=O)C1(O)CCC2c1ccc(=O)oc1 (stereo not given)
GI50 (P388): < 0.1 µM (active) | GI50 (SN12K1): 0.05 µM (active) | GI50 (P388/ADR): 0.21 µM (active)

CN1C(=O)c2ccc(C(=O)NCc3ccc4c(c3)OCO4)cc2C1=O
IC50 [4]: 23.2 µM (not active)

CCOP(=O)(Cc1cc(C(C)=O)c(C)o1)OCC
IC50 [1]: > 66 µM (inactive) | IC50 [2]: > 66 µM (inactive)

O=C(CCN1C(=O)/C(=C/c2ccc(F)cc2)SC1=S)Nc1cc([N+](=O)[O-])ccc1O
IC50 [5]: 7.68 µM (active)

CCCNC(=O)C(C)C1CCC2(C)C=CC(=O)C(C)=C2C1O (stereo not given)
GI50 (P388): > 100 µM (inactive) | GI50 (SN12K1): > 100 µM (inactive) | GI50 (P388/ADR): > 100 µM (inactive)

O=C(C1CC1)N1CCc2cc(Br)cc(S(=O)(=O)NC3CCCCC3)c21
IC50 [4]: > 50 µM (not active)

O=C(/C=C/c1cccs1)N1CCOCC1
IC50 [4]: > 50 µM (not active)

CC(/C=N/NC(=O)c1cc(-c2ccc3ccccc3c2)[nH]n1)=C\c1ccco1
CC50 [6]: 37.2 µM (active) | IC50 [3]: 4.1 µM (active)

COc1ccc(CNc2ccc([N+](=O)[O-])cc2C)cc1
IC50 [4]: 3.81 µM (not active) | CC50 [7]: 35 µM (active)

CCNc1nc(NCC)nc(C(=O)NN)n1
IC50 [3]: 2.32 µM (active)

CCOc1cc(/C=C(\C#N)c2n[nH]c(N)c2C#N)ccc1O
IC50 [8]: 17.1 µM (active) | IC50 [3]: 5.24 µM (active)

NC(Cc1cc(I)c(O)c(I)c1)C(=O)O (stereo not given)
GI50 (P388): 21.6 µM (inactive) | GI50 (SN12K1): 169 µM (inactive) | GI50 (P388/ADR): 21.3 µM (inactive)

CC1(C)N=C(N)N=C(N)N1c1ccc(CCCCc2ccc(S(=O)(=O)F)cc2Cl)c(Cl)c1
GI50 (P388): 0.05 µM (active) | GI50 (SN12K1): 0.979 µM (active) | GI50 (P388/ADR): 0.369 µM (active)

CCCCNC(=O)c1sc(=S)n(-c2ccccc2OC)c1N
IC50 [1]: > 66 µM (inactive) | IC50 [2]: > 66 µM (inactive)

CC1CCCN(C(=O)c2sc3cc([N+](=O)[O-])ccc3c2Cl)C1 (stereo not given)
AC50 (Cytochrome P450 3A4): 17.8 µM (inconclusive) | IC50 [4]: 7.61 µM (active) | AC50 (Cytochrome P450 1A2): 15.8 µM (inconclusive)

CCCCC1NC(C(=O)O)CS1 (stereo not given)
IC50 [1]: > 66 µM (inactive) | IC50 [2]: > 66 µM (inactive)

Cc1noc(NS(=O)(=O)c2ccc(NC(=O)c3ccc(N4C(=O)c5ccccc5C4=O)cc3)cc2)c1C
IC50 [4]: 4.9 µM (not active)

NC(=O)c1[nH]nc(C2OC(CO)C(O)C2O)c1O (stereo not given)
GI50 (P388): 0.5 µM (active) | GI50 (SN12K1): 0.561 µM (active) | GI50 (P388/ADR): 0.5 µM (active)

c1ccc(N2CCN(c3ncnc4scc(-c5cccs5)c34)CC2)cc1
EC50 [9]: 71.5 µM (active) | IC50 [4]: 1.1 µM (not active) | EC50 [10]: 56.8 µM (active)

CC(=O)c1cccc(NC(=O)COc2cc3oc(=O)c(CC(C)O)c(C)c3cc2Cl)c1 (stereo not given)
IC50 [5]: 12.5 µM (active)

Cc1cc([N+](=O)[O-])c(-c2ccc(/C=N/n3cnnc3)o2)cc1Cl
IC50 [4]: 1.59 µM (not active)

COc1ccc(C(=O)CCN2CCC(C)CC2)cc1
IC50 [1]: > 66 µM (inactive) | IC50 [2]: > 66 µM (inactive)

CCOCC(=O)Nc1nnc(COc2ccc(Cl)cc2)s1
IC50 [1]: > 66 µM (inactive) | IC50 [2]: > 66 µM (inactive)

C[C@H]1COC(c2ccccn2)=N1
GI50 (P388): > 100 µM (inactive) | GI50 (SN12K1): > 100 µM (inactive) | GI50 (P388/ADR): > 100 µM (inactive)

[N-]=[N+]=CC(=O)CCC(NC(=O)C(CCC(=O)C=[N+]=[N-])NC(=O)CCC(N)C(=O)O)C(=O)O (stereo not given)
GI50 (P388): > 100 µM (inactive) | GI50 (SN12K1): > 100 µM (inactive) | GI50 (P388/ADR): > 100 µM (inactive)

COc1ccc2nc3c(C(=O)NCCN(C)C)cccc3cc2c1
GI50 (P388): 0.305 µM (active) | GI50 (SN12K1): 0.944 µM (active) | GI50 (P388/ADR): 0.652 µM (active)

N#C/C(=C/c1ccc(-c2ccc(C(=O)O)c(Cl)c2)o1)C(=O)NCC1CCCO1 (stereo not given)
IC50 [5]: 33.2 µM (active)

Cc1ccc(-c2cc(C(=O)NCCCn3ccnc3)c3cc(Br)ccc3n2)o1
IC50 [3]: 3.07 µM (not active) | IC50 [11]: 11.5 µM (active)

CCn1c(C)cc(C)[n+]1-c1ccccc1
IC50 [5]: 13.2 µM (active)

CC1=C(C#N)C(C(F)(F)F)(C(F)(F)F)NC(c2ccco2)=N1
AC50 (INS1): 4.65 µM (active) | AC50 [12]: 10.1 µM (active) | AC50 [13]: 7.72 µM (active) | AC50 [14]: > 70 µM (inactive)

CCNCCCCNCC
GI50 (P388): 1560 µM (inactive) | GI50 (SN12K1): > 3750 µM (inactive) | GI50 (P388/ADR): > 3750 µM (inactive)

SC1=NC[C@H](Cc2cccc3ccccc23)N1CC1CCCCC1
IC50 [4]: > 50 µM (not active)
